Where a name gives a salt, the structure may show the parent alone.
Key:
E. coli ATCC 25992 = assay: In vitro MIC, agar dilution; type: cell-based; details: Escherichia coli, ATCC25992, read-out: minimum inhibitory concentration (MIC)
Method: (§1) The compounds of the invention were evaluated against several β-lactamresistant (for example methicillin-resistant, vancomycin resistant, and/or ampicillin-resistant) bacteria strains by determining the minimum inhibitory concentration (MIC, μg/ml) of each compound with respect to each strain. The MIC, the lowest concentration of antibiotic which inhibits growth of the test organism, was determined by the agar dilution method.
(§2) To determine the MIC for bacterial isolates, the test compound was incorporated in a series of two-fold dilutions into liquified Mueller-Hinton agar. Upon solidification, a number of different bacterial strains were spot inoculated with a replicating device onto the agar surface.
(§3) Aliquots of antimicrobial agents were prepared in phosphate buffered saline (PBS) at pH 7.2. Tween 20 or DMSO was used as a solubilizing vehicle as needed. Standard methods of vortexing, sonicating and gentle heat were used to facilitate solubilizing the test agent. […] A 1.28 mg/mL stock solution was used with a subsequent highest working concentration of 128 μg/mL. Serial two-fold dilutions were done through ≤0.25 μg/mL. Each drug level was tested in duplicate. Two-fold drug dilutions were done in sterile 50 mL tubes with a final drug volume of 5 mL. Upon the addition of 45 mL of molten agar, a 10-fold dilution resulted. Two, 25 mL. plates were then poured into 15×150 mm square Petri plates with grids and allowed to harden.
(§4) A control plate with a reference drug, either cefotaxime, vancomycin or imipenem, was used as the positive growth control. Stock concentrations of reference antibiotics were prepared and frozen at -80° C. […] All test plates were used within 24 hours of preparation.
(§5) Satisfactory results were obtained where the inoculum contained about 10^4 colony forming units (cfu)±0.5 logs. Starting with pure cultures of the test isolates on agar plates, a few isolated colonies were transferred to a tube of nutrient broth and allowed to grow 4-6 hours at 35-36° C. to reach log-phase growth. Dropwise addition of the broth culture to PBS was done to match a 0.5 McFarland turbidity standard equal to 10^8 cfu/mL. This was further diluted ten-fold in PBS to reach a working inoculum concentration of 10^7 cfu/mL. When 1 μL of the working inoculum was applied to the agar surface a concentration of about 10^4 cfu per spot was obtained.
(§6) Disposable sterile 1 μL loops were used to inoculate test plates, with each isolate in a designated grid on the agar plate. An alternate method of inoculation involved the use of a replica plater, a device with 48 steel pins allowing the simultaneous inoculation of multiple isolates. After the spots had dried, the plates were incubated at 35-36° C. for 16-20 hours. Endpoints were assessed as the minimum inhibitory concentration (MIC) of antimicrobial agent.

E. faecalis ATCC 29212 = assay: In vitro MIC, agar dilution; type: cell-based; details: Enterococcus faecalis, ATCC29212, read-out: minimum inhibitory concentration (MIC)
Method: as §1, §2, §3, §4, §5, §6

E. faecalis VanB(Van^R) = assay: In vitro MIC, agar dilution; type: cell-based; details: Enterococcus faecalis, read-out: minimum inhibitory concentration (MIC)
Method: as §1, §2, §3, §4, §5, §6

E. faecium A491(Amp^R) = assay: In vitro MIC, agar dilution; type: cell-based; details: Enterococcus faecium, read-out: minimum inhibitory concentration (MIC)
Method: as §1, §2, §3, §4, §5, §6

E. faecium ATCC 35667 = assay: In vitro MIC, agar dilution; type: cell-based; details: Enterococcus faecium, ATCC35667, read-out: minimum inhibitory concentration (MIC)
Method: as §1, §2, §3, §4, §5, §6

E. faecium VanA(Van^R) = assay: In vitro MIC, agar dilution; type: cell-based; details: Enterococcus faecium, read-out: minimum inhibitory concentration (MIC)
Method: as §1, §2, §3, §4, §5, §6

P. aeruginosa ATCC 27853 = assay: In vitro MIC, agar dilution; type: cell-based; details: Pseudomonas aeruginosa, ATCC27853, read-out: minimum inhibitory concentration (MIC)
Method: as §1, §2, §3, §4, §5, §6

[1] = system: S. aureus 76(Meth^R)(lac^+); assay: In vitro MIC, agar dilution; type: cell-based; details: Staphylococcus aureus, read-out: minimum inhibitory concentration (MIC)
Method: as §1, §2, §3, §4, §5, §6

[2] = system: S. aureus ATCC 13709(Meth^S); assay: In vitro MIC, agar dilution; type: cell-based; details: Staphylococcus aureus, ATCC13709, S. aureus ATCC 13709(Meth^S); read-out: minimum inhibitory concentration (MIC)
Method: as §1, §2, §3, §4, §5, §6

S. aureus ATCC 29213 = assay: In vitro MIC, agar dilution; type: cell-based; details: Staphylococcus aureus, ATCC29213, read-out: minimum inhibitory concentration (MIC)
Method: as §1, §2, §3, §4, §5, §6

[3] = system: S. aureus ATCC 33593(Meth^R); assay: In vitro MIC, agar dilution; type: cell-based; details: Staphylococcus aureus, ATCC33593, read-out: minimum inhibitory concentration (MIC)
Method: as §1, §2, §3, §4, §5, §6

[4] = system: S. aureus PC1(Meth^S)(lac^+); assay: In vitro MIC, agar dilution; type: cell-based; details: Staphylococcus aureus, read-out: minimum inhibitory concentration (MIC)
Method: as §1, §2, §3, §4, §5, §6

[5] = system: S. aureus Spain #356(Meth^R); assay: In vitro MIC, agar dilution; type: cell-based; details: Staphylococcus aureus, read-out: minimum inhibitory concentration (MIC)
Method: as §1, §2, §3, §4, §5, §6

[6] = system: S. haemolyticus 05(Meth^R); assay: In vitro MIC, agar dilution; type: cell-based; details: Staphylococcus haemolyticus, read-out: minimum inhibitory concentration (MIC)
Method: as §1, §2, §3, §4, §5, §6

[7] = system: S. aureus Col(Meth^R)(lac^-); assay: In vitro MIC, agar dilution; type: cell-based; details: Staphylococcus aureus, read-out: minimum inhibitory concentration (MIC)
Method: as §1, §2, §3, §4, §5, §6
The S. aureus Col strain is a high-level PBP2a producer, whereas S. aureus Col 8A, its isogenic partner, lacks PBP2a.

[8] = system: S. aureus strain ATCC 13709 (methicillin-susceptible); assay: Murine model for lethal bacteremic peritonitis; type: in vivo, female Swiss-Webster mice; details: Staphylococcus aureus, ATCC13709, SC, 72 h
Method: Groups of 5 female Swiss-Webster mice (Simonsen, Gilroy, Calif.) each are challenged by the intraperitoneal (IP) route with tenfold increments of a bacterial inoculum. This permits calculation of the mean lethal dose (LD50) and the LD100. For preliminary evaluation of a new antibiotic, mice are challenged IP with an LD100 titer of bacteria. In two equal doses administered at the time of bacterial challenge and 2 hours later, groups of 10 mice each are treated subcutaneously with two-fold increments of the test drug and an antibiotic of known efficacy in mice and humans (i.e., positive control). Mice are observed for 72 h. Those alive at 72 h are considered long term survivors. The total drug dose in mg/kg that protects 50% of mice in a group from death is termed the mean protective dose (PD50). PD50 s are similarly determined for several pathogens. The quantitative endpoints for the new drug are then compared with those obtained with reference antibiotics.
Six ten-fold dilutions of inoculum suspended in 0.5 mL of sterilized 7% hog gastric mucin (Sigma) are injected IP in groups of 5 mice each. A control group of 5 mice receive mucin alone. Mice are observed for 72 h. Those alive at 72 h are considered long term survivors. The mean lethal dose (LD50) and 100% lethal dose (LD100) are determined by the probit test.
For antibiotic efficacy studies, mice are challenged IP with bacterial titers that will afford an LD100 for the test strain. In two equal doses administered at the time of bacterial challenge and 2 hours later, groups of 10 mice each are treated by the subcutaneous route (SC) with twofold increments of the test antibiotic; another group is treated similarly with a reference antibiotic of known efficacy in animals and man. Drug doses can range from 0.01 to 512 mg/kg. If the drug is poorly soluble, Tween 20 or propylene glycol will be employed to solubilize the drug. Animals are observed for 72 h. The 50% protective dose (PD50) is calculated in mg/kg by the probit method. The PD50 is the same as the 50% effective dose (ED50) and the 50% curative dose (CD50). Samples of blood from the hearts of all animals that die and from half the mice that survive are cultured on brain-heart infusion agar. Animals that received a protective dosage of the test drug will be alive at 72 h, although they may appear moderately ill to very ill during the observation period. […] Most of these mice will die within 6 to 48 h. Those alive at 72 h will be considered long term survivors.
(Compound numbers correspond to those in MIC tables; data reported for challenge with methicillin-susceptible S. aureus strain ATCC 13709.)

SMILES | MIC (E. coli ATCC 25992) [µg/mL] | MIC (E. faecalis ATCC 29212) [µg/mL] | MIC (E. faecalis VanB(Van^R)) [µg/mL] | MIC (E. faecium A491(Amp^R)) [µg/mL] | MIC (E. faecium ATCC 35667) [µg/mL] | MIC (E. faecium VanA(Van^R)) [µg/mL] | MIC (P. aeruginosa ATCC 27853) [µg/mL] | MIC [1] [µg/mL] | MIC [2] [µg/mL] | MIC (S. aureus ATCC 29213) [µg/mL] | MIC [3] [µg/mL] | MIC [4] [µg/mL] | MIC [5] [µg/mL] | MIC [6] [µg/mL] | MIC [7] [µg/mL] | other results
N=CNCCSCc1cnccc1SC1=C(C(=O)O)N2C(=O)[C@@H](NC(=O)/C(=N\O)c3nc(N)sc3Cl)[C@H]2SC1 [Cmpd 31, (7R)-7-[(Z)-2-(2-amino-5-chlorothiazol-4-yl)-2-(hydroxyimino)acetamido]-3-(3-(N-formamidinoyl)aminoethylthiomethylpyrid-4-ylthio)-3-cephem-4-carboxylate, trifluoroacetic acid salt] | 8 | 0.5 | 0.25 | 8 | 0.5 | 1 | > 32 | 2 | 0.25 | 0.25 | 2 | 0.25 | 2 | 4 | 2 | 
CNCC(=O)NCCSCc1cnccc1SC1=C(C(=O)O)N2C(=O)[C@@H](NC(=O)/C(=N\O)c3csc(N)n3)[C@H]2SC1 [Cmpd 18, (7R)-7-[(Z)-2-(aminothiazol-4-yl)-2-(hydroxyimino)acetamido]-3-[3-(N-methylglycyl)aminoethylthiomethylpyrid-4-ylthio]-3-cephem-4-carboxylate, trifluoroacetic acid salt] | 8 | 0.25 | 0.5 | > 32 | 2 | 2 | > 32 | 8 | 1 | 1 | 4 | 1 | 8 | 8 |  | responders at 0.3125 mg/kg ([8]; Dose 0.3125 mg/kg, read-out: Survivors): 30%; responders at 0.625 mg/kg ([8]; Dose 0.625 mg/kg, read-out: Survivors): 20%; responders at 1.25 mg/kg ([8]; Dose 1.25 mg/kg, read-out: Survivors (converted)): 20%; responders at 2.5 mg/kg ([8]; Dose 2.5 mg/kg, read-out: Survivors): 20%; responders at 5 mg/kg ([8]; Dose 5 mg/kg, read-out: Survivors): 60%; ED50 ([8]; two equal doses, IP challenge, read-out: ED50): 4.44 mg/kg
CC(=N)NCCSCc1cnccc1SC1=C(C(=O)O)N2C(=O)[C@@H](NC(=O)/C(=N\O)c3nc(N)sc3Cl)[C@H]2SC1 [Cmpd 54, (7R)-7-[(Z)-2-(2-amino-5-chlorothiazol-4-yl)-2-(hydroxyimino)acetamido]-3-(3-(N-acetamidinoyl)aminoethylthiomethylpyrid-4-ylthio)-3-cephem-4-carboxylate, trifluoroacetic acid salt] | 8 | 0.13 | 0.25 | 8 | 0.5 | 1 | > 32 | 2 | 0.25 | 0.25 | 1 | 0.25 | 2 | 2 | 2 | 
N=C(N)SCc1cnccc1SC1=C(C(=O)O)N2C(=O)[C@@H](NC(=O)/C(=N\OC3CCCC3)c3csc(N)n3)[C@H]2SC1 [Cmpd 8, (7R)-7-[(Z)-2-(aminothiazol-4-yl)-2-(cyclopentyloxyimino)acetamido]-3-(3-isothioureidomethylpyrid-4-ylthio)-3-cephem-4-carboxylate, trifluoroacetic acid salt] | 2 | 0.5 | 0.5 | 32 | 2 | 8 | > 32 | 4 | 1 | 1 | 4 | 1 | 4 | 4 | 2 | 
